Results reported in US8614218B2, “Fused bicyclic pyrimidines” (Bayer Intellectual Property GmbH, priority 2007, dated 2013).

Experiments:
phospho-Akt (Ser473) = test: Cellular PI3K/Akt pathway assay (phospho-Akt ELISA); format: cell-based; details: Homo sapiens, MCF7 cells, β-Heregulin stimulated, 48 h incubation
From the text: Cellular PI3K/Akt Pathway Assay
In order to study the cellular activity of the compounds according to the present invention, an Enzyme Linked Immunosorbent Assay (ELISA)-based assay has been used specific phospho-AKT. The assay is based on a Sandwich ELISA kit (PathScan™ Phospho-Akt1 (Ser473); Cell Signaling, USA; #7160). The ELISA Kit detects endogenous levels of phosphorylated Akt protein. A phospho-Akt (Ser473) antibody (Cell Signaling, USA; #9271) has been coated onto the microwells. After incubation with cell lysates, the coated antibody captures the phosphorylated Akt protein. Following extensive washing, Akt1 monoclonal antibody (Cell Signaling, USA; #2967) is added to detect the captured phospho-Akt1 protein. HRP-linked anti-mouse antibody (HRP: horseradish peroxidase; Cell Signaling, USA; #7076) is then used to recognize the bound detection antibody. HRP substrate (=3,3′,5,5′-tetramethylbenzidine (TMB); Cell Signaling, USA; #7160) is added to develop colour. The magnitude of optical density for this developed color is proportional to the quantity of phosphorylated Akt protein.
MCF7 cells (ATCC HTB-22) are seeded into 96 well fate bottom plates at a density of 10000 cells/well. 24 hours after seeding, the cells are serum starved using low-serum medium (IMEM media including 0.1% charcoal treated FCS (FCS: fetal calf serum)). After 24 hours 1 μl each of the compound dilutions (test compounds were dissolved as 10 mM solutions in dimethylsulfoxide (DMSO) and subsequently diluted) are added into each well of the 96 well plates and incubated for 48 h at 37° C. in a humidified atmosphere containing 5% CO2. To stimulate Akt phosphorylation, β-Heregulin (20 ng/ml β-HRG) is added in parallel to the compounds. Wells containing unstimulated control cells (no β-Heregulin stimulation) are incubated with or without the diluted compound. Wells containing untreated control cells (no compound) are filled with medium containing 0.5% v:v DMSO and are or are not stimulated with β-Heregulin.
Cells are harvested and lysed with brief sonification in 1× cell lysis buffer (20 mM Tris (pH7.5), 150 mM NaCl, 1 mM ethylene diaminetetraacetate (EDTA), 1 mM ethylene glycolbis(2-aminoethyl)-N,N,N′,N′-tetraacetic acid (EGTA), 1 vol % Triton X-100, 2.5 mM sodium pyrophosphate, 1 mM β-glycerolphosphate, 1 mM Na3VO4, 1 μg/ml leupeptin). The lysate is centrifuged for 10 min. at 4° C. and the supernatant is transferred to a new tube. 100 μl of sample diluent (0.1 vol % Tween-20, 0.1 vol % sodium azide in phosphate buffered saline (PBS)) are added to a microcentrifuge tube and 100 μl of cell lysate are transferred into the tube and vortexed. 100 μl of each diluted cell lysate are added to the appropriate ELISA well, and incubated overnight at 4° C. The plates are washed 4 times with 1× wash buffer (1 vol % tween-20, 0.33 vol % thymol, in PBS). Next 100 μl of detection antibody (Akt1 (2H10) monoclonal detection antibody; Cell Signaling, USA; #2967) are added to each well and incubation continued for 1 h at 37° C. The washing procedure is repeated between each step. 100 μl of secondary antibody (anti-mouse IgG HRP-linked antibody; Cell Signaling, USA; #7076) are added to each well and incubated for 30 min. at 37° C. Than, 100 μl of TMB substrate (0.05% 3,3′,5,5′ tetramethylbenzidine, 0.1% hydrogen peroxide, complex polypeptides in a buffered solution; Cell Signaling, USA; #7160) are added to each well and incubated for 30 min. at 25° C. Finally 100 μl of STOP solution (0.05 vol % α and β unsaturated carbonyl compound) are added to each well and the plate are shaked gently. The absorbance is measured at λ=450 nm (Wallac Victor2; Perkin Elmer, USA) within 30 min. after adding the STOP solution. The analysis of the data is performed using a statistical program (Excel; Microsoft, USA). Preferred compounds show an inhibitory activity towards Akt phosphorylation below 10 μM.

A549 cells = test: Cellular proliferation/cytotoxicity assay (Alamar Blue), A549; format: cell-based; details: Homo sapiens, 72 h, Alamar Blue (Resazurin), read-out: Anti-proliterative/Cytotoxic activity (A549 cells)
In short: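 OvCAR3 (10000 cells/well) or A549 (2000 cells/well) were dosed 24 h after seeding and exposed for 72 h at 37 °C, 5% CO2, in duplicate or more. Resazurin was added for 4 h and fluorescence read at 544/590 nm. Viability is relative to untreated 0.5% DMSO controls, with IC50 by non-linear regression.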

Structure (SMILES) | IC50 (phospho-Akt (Ser473)) [µM] | IC50 (A549 cells) [µM]
CC(c1ccc(-c2nc3nccn3cc2-c2ccccc2)cc1)N1CCC(c2n[nH]c(-c3ccccn3)n2)CC1 (racemic) [Example 23, 6-phenyl-7-(4-{1-[4-(5-pyridin-2-yl-1H-1,2,4-triazol-3-yl)piperidin-1-yl]ethyl}phenyl)imidazo[1,2-a]pyrimidine] | < 1 | > 10
Fc1cnc2nc(-c3ccc(CN4CCC(c5n[nH]c(-c6cnccn6)n5)CC4)cc3)c(-c3ccccc3)cn12 [Example 24, 3-fluoro-6-phenyl-7-(4-{[4-(5-pyrazin-2-yl-1,2,4-triazol-3-yl)piperidin-1-yl]methyl}phenyl)imidazo[1,2-a]pyrimidine] | < 1 | > 10
Fc1cnc2nc(-c3ccc(CN4CCC(c5n[nH]c(-c6ncccn6)n5)CC4)cc3)c(-c3ccccc3)cn12 [Example 25, 3-fluoro-6-phenyl-7-(4-{[4-(5-pyrimidin-2-yl-1H-1,2,4-triazol-3-yl)piperidin-1-yl]methyl}phenyl)imidazo[1,2-a]pyrimidine] | < 1 | > 10
Clc1cnn2cc(-c3ccccc3)c(-c3ccc(CN4CCC(c5n[nH]c(-c6ccccn6)n5)CC4)cc3)nc12 [Example 30, 3-Chloro-6-phenyl-5-(4-{[4-(5-pyridin-2-yl-1H-1,2,4-triazol-3-yl)piperidin-1-yl]methyl}phenyl)pyrazolo[1,5-a]pyrimidine] | < 1 | < 10
Brc1cnn2cc(-c3ccccc3)c(-c3ccc(CN4CCC(c5n[nH]c(-c6ccccn6)n5)CC4)cc3)nc12 [Example 31, 3-Bromo-6-phenyl-5-(4-{[4-(5-pyridin-2-yl-1H-1,2,4-triazol-3-yl)piperidin-1-yl]methyl}phenyl)pyrazolo[1,5-a]pyrimidine] | < 1 | < 10
N#Cc1cnn2cc(-c3ccccc3)c(-c3ccc(CN4CCC(c5n[nH]c(-c6ccccn6)n5)CC4)cc3)nc12 [Example 32, 6-Phenyl-5-(4-{[4-(5-pyridin-2-yl-1H-1,2,4-triazol-3-yl)piperidin-1-yl]methyl}phenyl)pyrazolo[1,5-a]pyrimidine-3-carbonitrile] | < 1 | > 10
C#Cc1cnn2cc(-c3ccccc3)c(-c3ccc(CN4CCC(c5n[nH]c(-c6ccccn6)n5)CC4)cc3)nc12 [Example 33, 3-Ethynyl-6-phenyl-5-(4-{[4-(5-pyridin-2-yl-1H-1,2,4-triazol-3-yl)piperidin-1-yl]methyl}phenyl)pyrazolo[1,5-a]pyrimidine] | < 1 | < 10
CCc1cnn2cc(-c3ccccc3)c(-c3ccc(CN4CCC(c5n[nH]c(-c6ccccn6)n5)CC4)cc3)nc12 [Example 34, 3-Ethyl-6-phenyl-5-(4-{[4-(5-pyridin-2-yl-1H-1,2,4-triazol-3-yl)piperidin-1-yl]methyl}phenyl)pyrazolo[1,5-a]pyrimidine] | < 1 | < 10
Cc1ccnc(-c2nc(C3CCN(Cc4ccc(-c5nc6nccn6cc5-c5ccccc5)cc4)CC3)n[nH]2)c1 [Example 35, 7-[4-({4-[5-(4-Methylpyridin-2-yl)-1H-1,2,4-triazol-3-yl]piperidin-1-yl}methyl)phenyl]-6-phenylimidazo[1,2-a]pyrimidine] | < 1 | < 10
Cc1cccc(-c2nc(C3CCN(Cc4ccc(-c5nc6nccn6cc5-c5ccccc5)cc4)CC3)n[nH]2)n1 [Example 36, 7-[4-({4-[5-(6-Methylpyridin-2-yl)-1H-1,2,4-triazol-3-yl]piperidin-1-yl}methyl)phenyl]-6-phenylimidazo[1,2-a]pyrimidine] | < 1 | < 10
CCc1nc2nc(-c3ccc(CN4CCC(c5n[nH]c(-c6ccccn6)n5)CC4)cc3)c(-c3ccccc3)cn2n1 [Example 40, 2-Ethyl-6-phenyl-5-(4-{[4-(5-pyridin-2-yl-1H-1,2,4-triazol-3-yl)piperidin-1-yl]methyl}phenyl)[1,2,4]triazolo[1,5-a]pyrimidine] | < 1 | < 10
